In US8138171B2, “Dioxolane and dioxolanone fused indolobenzadiazepine HCV NS5B inhibitors” (Bristol-Myers Squibb Company, priority 2008, dated 2012):
pEC50, pIC50: −log10 of the molar value. Where two headings read alike, the source gives them in different places.

Experiments:
[1] = tested on: HCV replicon cells; assay: HCV replicon FRET assay; assay type: cell-based; conditions: Hepatitis C virus
From the text: FRET Assay Preparation. To perform the HCV FRET screening assay, 96-well cell culture plates were used. The FRET peptide (Anaspec, Inc.) (Taliani et al., Anal. Biochem. 1996, 240, 60-67) contains a fluorescence donor, EDANS, near one end of the peptide and an acceptor, DABCYL, near the other end. The fluorescence of the peptide is quenched by […] resonance energy transfer (RET) between the donor and the acceptor, but as the NS3 protease cleaves the peptide the products are released from RET quenching and the fluorescence of the donor becomes apparent. The assay reagent was made as follows: 5× cell Luciferase cell culture lysis reagent from Promega (#E153A) diluted to 1× with dH2O, NaCl added to 150 mM final, the FRET peptide diluted to 20 uM final from a 2 mM stock.
To prepare plates, HCV replicon cells, with or without a Renilla luciferase reporter gene, were trypsinized and placed into each well of a 96-well plate with titrated test compounds added in columns 3 through 12; columns 1 and 2 contained a control compound (HCV protease inhibitor), and the bottom row contained cells without compound. The plates were then placed in a CO2 incubator at 37° C.
Assays. Subsequent to addition of the test compounds described above (FRET Assay Preparation), at various times the plate was removed and Alamar blue solution (Trek Diagnostics, #00-100) was added per well as a measure of cellular toxicity, After reading in a Cytoflour 4000 instrument (PE Biosystems), plates were rinsed with PBS and then used for FRET assay by the addition of 30 ul of the FRET peptide assay reagent described above (FRET Assay Preparation) per well. The plate was then placed into the Cytoflour 4000 instrument which had been set to 340 excite/490 emission, automatic mode for 20 cycles and the plate read in a kinetic mode. Typically, the signal to noise using an endpoint analysis after the reads was at least three-fold. Alternatively, after Alamar blue reading, plates were rinsed with PBS, 50 ul of DMEM (high glucose) without phenol red was added and plates were then used for luciferase assay using the Promega Dual-Glo Luciferase Assay System.
Compound analysis was determined by quantification of the relative HCV replicon inhibition and the relative cytotoxicity values. To calculate cytoxicity values, the average Alamar Blue fluorescence signals from the control wells were set as 100% non-toxic. The individual signals in each of the compound test wells were then divided by the average control signal and multiplied by 100% to determine […]. To calculate the HCV replicon inhibition values, an average background value was obtained from the two wells containing the highest amount of HCV protease inhibitor at the end of the assay period. These numbers were similar to those obtained from naive Huh-7 cells.
The background numbers were then subtracted from the average signal obtained from the control wells and this number was used as 100% activity. The individual signals in each of the compound test wells were then divided by the averaged control values after background subtraction and multiplied by 100% to determine percent activity. EC50 values for a protease inhibitor titration were calculated as the concentration which caused a 50% reduction in FRET or luciferase activity. The two numbers generated for the compound plate, percent cytoxicity and percent activity were used to determine compounds of interest for further analysis.

[2] = biological target: T1, HCV NS5B RdRp genotype 1b (Hepatitis C virus genotype 1b, UniProt P26663); assay: Modified HCV NS5B RdRp enzyme assay (preincubation protocol); assay type: biochemical
T1 construct: The protein was expressed with an 18 amino acid C-terminal truncation to enhance the solubility; made in house; host or cells: E. coli BL21(DE3), pET21a
T1 sequence (P26663 2420-2992): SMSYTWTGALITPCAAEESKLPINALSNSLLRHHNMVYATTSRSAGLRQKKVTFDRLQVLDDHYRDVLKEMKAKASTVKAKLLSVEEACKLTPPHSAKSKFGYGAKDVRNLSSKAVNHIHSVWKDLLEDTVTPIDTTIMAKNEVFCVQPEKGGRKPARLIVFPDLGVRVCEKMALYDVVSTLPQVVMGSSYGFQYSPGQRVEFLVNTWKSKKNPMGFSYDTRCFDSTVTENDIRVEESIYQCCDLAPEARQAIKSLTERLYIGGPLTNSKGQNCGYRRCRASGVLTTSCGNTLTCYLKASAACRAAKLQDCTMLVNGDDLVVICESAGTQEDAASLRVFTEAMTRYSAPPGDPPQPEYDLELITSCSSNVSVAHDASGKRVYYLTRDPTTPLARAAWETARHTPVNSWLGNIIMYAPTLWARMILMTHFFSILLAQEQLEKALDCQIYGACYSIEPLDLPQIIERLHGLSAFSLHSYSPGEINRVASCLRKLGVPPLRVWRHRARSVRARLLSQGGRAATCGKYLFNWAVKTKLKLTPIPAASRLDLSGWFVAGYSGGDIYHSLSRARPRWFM
Procedure: HCV NS5B RdRp cloning, expression, and purification. The cDNA encoding the NS5B protein of HCV, genotype 1b, was cloned into the pET21a expression vector. The protein was expressed with an 18 amino acid C-terminal truncation to enhance the solubility. The E. coli competent cell line BL21(DE3) was used for expression of the protein. Cultures were grown at 37° C. for ˜4 hours until the cultures reached an optical density of 2.0 at 600 nm. The cultures were cooled to 20° C. and induced with 1 mM IPTG. Fresh ampicillin was added to a final concentration of 50 μg/ml and the cells were grown overnight at 20° C.
Cell pellets (3 L) were lysed for purification to yield 15-24 […] of purified NS5B. The lysis buffer consisted of 20 mM Tris-HCl, pH 7.4, 500 mM NaCl, 0.5% triton X-100, 1 mM DTT, 1 mM EDTA, 20% glycerol, 0.5 mg/ml lysozyme, 10 mM MgCl2, 15 ug/ml deoxyribonuclease I, and Complete™ protease inhibitor tablets (Roche). After addition of the lysis buffer, frozen cell pellets were resuspended using a tissue homogenizer. To reduce the viscosity of the sample, aliquots of the lysate were sonicated on ice using a microtip attached to a Branson sonicator. The sonicated lysate was centrifuged at 100,000×g for 1 hr at 4° C. and filtered through a 0.2 μm filter unit (Corning).
The protein was purified using three sequential chromatography steps: Heparin sepharose CL-6B, polyU sepharose 4B, and Hitrap SP sepharose (Pharmacia). The chromatography buffers were identical to the lysis buffer but contained no lysozyme, deoxyribonuclease I, MgCl2 or protease inhibitor and the NaCl concentration of the buffer was adjusted according to the requirements for charging the protein onto the column. Each column was eluted with a NaCl gradient which varied in length from 5-50 column volumes depending on the column type. After the final chromatography step, the resulting purity of the enzyme is >90% based on SDS-PAGE analysis. The enzyme was aliquoted and stored at −80° C.
Standard HCV NS5B RdRp enzyme assay. HCV RdRp genotype 1b assays were run in a final volume of 60 μl in 96 well plates (Costar 3912). The assay buffer is composed of 20 mM Hepes, pH 7.5, 2.5 mM KCl, 2.5 mM MgCl2, 1 mM DTT, 1.6 U RNAse inhibitor (Promega N2515), 0.1 mg/ml BSA (Promega R3961), and 2% glycerol. All compounds were serially diluted (3-fold) in DMSO and diluted further in water such that the final concentration of DMSO in the assay was 2%. HCV RdRp genotype 1b enzyme was used at a final concentration of 28 nM. A polyA template was used at 6 nM, and a biotinylated oligo-dT12 primer was used at 180 nM final concentration. Template was obtained commercially (Amersham 27-4110). Biotinylated primer was prepared by Sigma Genosys. 3H-UTP was used at 0.6 μCi (0.29 μM total UTP). Reactions were initiated by the addition of enzyme, incubated at 30° C. for 60 min, and stopped by adding 25 μl of 50 mM EDTA containing SPA beads (4 μg/μl, Amersham RPNQ 0007). Plates were read on a Packard Top Count NXT after >1 hr incubation at room temperature.
Modified HCV NS5B RdRp enzyme assay. A modified enzyme assay was performed essentially as described for the standard enzyme assay except for the following: The biotinylated oligo dT12 primer was precaptured on streptavidin-coated SPA beads by mixing primer and beads in assay buffer and incubating at room temperature for one hour. Unbound primer was removed after centrifugation. The primer-bound beads were resuspended in 20 mM Hepes buffer, pH 7.5 and used in the assay at final concentrations of 20 nM primer and 0.67 μg/μl beads. Order of addition in the assay: enzyme (14 nM) was added to diluted compound followed by the addition of a mixture of template (0.2 nM), 3H-UTP (0.6 μCi, 0.29 μM), and primer-bound beads, to initiate the reaction; concentrations given are final. Reactions were allowed to proceed for 4 hours at 30° C.
IC50 values for compounds were determined using seven different. […]

[3] = HCV replicon cells, FRET assay, read-out: EC50
[4] = HCV NS5B RdRp genotype 1b, preincubation protocol, read-out: IC50

Structure (SMILES) | pEC50 [1, 3] | pIC50 [2, 4] | pEC50 [1] | pIC50 [2]
COc1ccc2c(c1)[C@@H]1OC(C)(C)O[C@]1(C(=O)N(C)CCN(C)C)Cn1c-2c(C2CCCCC2)c2ccc(C(=O)NS(=O)(=O)N(C)C)cc21 (racemic) [Example 1, rac-(3aR,14bS)-10-Cyclohexyl-N^3a-(2-(dimethylamino)ethyl)-N^7-((dimethylamino)sulfonyl)-N^3a,2,2-trimethyl-13-(methyloxy)-4H-[1,3]dioxolo[4,5-d]indolo[2,1-a][2]benzazepine-3a,7(14bH)-dicarboxamide] | 6.89 | 6.77 |  | 
COc1ccc2c(c1)[C@@H]1OC(=O)O[C@]1(C(=O)N1C[C@@H](C)O[C@@H](C)C1)Cn1c-2c(C2CCCCC2)c2ccc(C(=O)NS(=O)(=O)N(C)C)cc21 (racemic) [Example 2, rac-(3aR,14bS)-10-Cyclohexyl-N-((dimethylamino)sulfonyl)-3a4(2R,6S)-2,6-dimethyl-4-morpholinyl)carbonyl)-13-(methyloxy)-2-oxo-3a,14b-dihydro-4H-[1,3]diaxolo[4,5-d]indolo[2,1-a][2]benzazepine-7-carboxamide] | 7.23 | 7.48 |  | 
COc1ccc2c(c1)[C@@H]1OC(C)(C)O[C@]1(C(=O)N1C[C@@H](C)O[C@@H](C)C1)Cn1c-2c(C2CCCCC2)c2ccc(C(=O)NS(=O)(=O)N(C)C)cc21 (racemic) [Example 3, rac-(3aR,14bS)-10-Cyclohexyl-N-((dimethylamino)sulfonyl)-3a-(((2R,6S)-2,6-dimethyl-4-morpholinyl)carbonyl)-2,2-dimethyl-13-(methyloxy)-3a,14b-dihydro-4H-[1,3]dioxolo[4,5-d]indolo[2,1-a][2]benzazepine-7-carboxamide] |  | 6.96 | 6.77 | 
COc1ccc2c(c1)[C@@H]1OC(=O)O[C@]1(C(=O)N1C3CCC1CN(C)C3)Cn1c-2c(C2CCCCC2)c2ccc(C(=O)NS(=O)(=O)N(C)C)cc21 (racemic) [Example 4, rac-(3aR,14bS)-10-Cyclohexyl-N-((dimethylamino)sulfonyl)-3a-((3-methyl-3,8-diazabicyclo[3.2.1]oct-8-yl)carbonyl)-13-(methyloxy)-2-oxo-3a,14b-dihydro-4H-[1,3]dioxolo[4,5-d]indolo[2,1-a][2]benzazepine-7-carboxamid] |  |  | 7.00 | 7.04
COc1ccc2c(c1)[C@@H]1OC(C)(C)O[C@]1(C(=O)N1C3CCC1CN(C)C3)Cn1c-2c(C2CCCCC2)c2ccc(C(=O)NS(=O)(=O)N(C)C)cc21 (racemic) [Example 5, rac-(3aR,4bS)-10-Cyclohexyl-N-((dimethylamino)sulfonyl)-2,2-dimethyl-3a-((3-methyl-3,8-diazabicyclo[3.2.1]oct-8-yl)carbonyl)-13-(methyloxy)-3a,14b-dihydro-4H-[1,3]dioxolo[4,5-d]indolo[2,1-a][2]benzazepine-7-carboxamid] |  |  | 6.85 | 6.23
COc1ccc2c(c1)[C@@H]1OCO[C@]1(C(=O)N1C3CCC1CN(C)C3)Cn1c-2c(C2CCCCC2)c2ccc(C(=O)NS(=O)(=O)N(C)C)cc21 (racemic) [Example 6, rac-(3aR,14bS)-10-Cyclohexyl-N-((dimethylamino)sulfonyl)-3a-((3-methyl-3,8-diazabicyclo[3.2.1]oct-8-yl)carbonyl)-13-(methyloxy)-3a,14b-dihydro-4H-[1,3]dioxolo[4,5-d]indolo[2,1-a][2]benzazepine-7-carboxamid] |  |  | 6.85 | 6.37
